# In article PMC6106931 (Alzheimer's Research & Therapy, 2018):
# Assay: Clinical safety, Study ALZ1005
# Assay type: in vivo, human
# Conditions: for patients with one or more TEAEs: Caucasian early AD; for Subjects with any TEAE / TEAE: Accidental overdose / TEAE: Anxiety / TEAE: Bladder cancer / TEAE: Conjunctivitis / TEAE: Dementia Alzheimer’s type / TEAE: Depressed mood / TEAE: Dermatitis allergic / TEAE: Dizziness / TEAE: Eczema vesicular / TEAE: Fatigue / TEAE: Gastrointestinal disorders / TEAE: General disorders and administration site conditions / TEAE: Headache / TEAE: Hypertension / TEAE: Infections and infestations / TEAE: Injury, poisoning and procedural complications / TEAE: Insomnia / TEAE: Irritability / TEAE: Musculoskeletal and connective tissue disorders / TEAE: Nasopharyngitis / TEAE: Nausea / TEAE: Neck pain / TEAE: Neoplasms benign, malignant and unspecified / TEAE: Nervous system disorders / TEAE: Post lumbar puncture syndrome / TEAE: Psoriasis / TEAE: Psychiatric disorders / TEAE: Renal and urinary disorders / TEAE: Renal colic / TEAE: Reproductive system and breast disorders / TEAE: Skin and subcutaneous tissue disorders / TEAE: Somnolence / TEAE: Syncope / TEAE: Urticaria / TEAE: Vascular disorders / TEAE: Vulvovaginal candidiasis / TEAE: Vulvovaginal pruritus: MCI due to AD
# Experimental: Safety and tolerability were assessed during the study by recording adverse events (AEs), clinically significant abnormalities, clinical laboratory tests, ECG, and vital signs and by performing physical, neurological, and MRI examinations. All enrolled participants were included in the safety analysis population.
compound,measurement,setting,value
C[C@@]1(c2cc(NC(=O)c3ccc(C#N)cn3)ccc2F)C=CSC(N)=N1 [atabecestat],relevant abnormal neurological finding,"10 mg, one participant, day 28",mild ataxia
same,events considered possibly related to the study drug,50-mg group,urticaria (n = 1)
same,events considered probably related to the study drug,50-mg group,"nausea (n = 1), dementia of Alzheimer’s type (n = 1), headache (n = 1)"
same,tolerability,"Caucasian and Japanese, 10 and 50 mg, 4 weeks",well tolerated
same,patients with one or more TEAEs,"10-mg group, 3 of 15 patients",20.0%
same,patients with one or more TEAEs,"50-mg group, 8 of 16 patients",50.0%
same,participants with no microhemosiderin deposits in the brain on MRI at end of treatment,"Caucasian, atabecestat groups, 80.6% at baseline",90.3%
same,Subjects with any TEAE,"10 mg, N=10",^2 (20.0) n (%)
same,TEAE: Accidental overdose,"10 mg, N=10",^1 (10.^0) n (%)
same,TEAE: Anxiety,"10 mg, N=10",^0 n (%)
same,TEAE: Bladder cancer,"10 mg, N=10",^0 n (%)
same,TEAE: Conjunctivitis,"10 mg, N=10",^0 n (%)
same,TEAE: Dementia Alzheimer’s type,"10 mg, N=10",^0 n (%)
same,TEAE: Depressed mood,"10 mg, N=10",^0 n (%)
same,TEAE: Dermatitis allergic,"10 mg, N=10",^0 n (%)
same,TEAE: Dizziness,"10 mg, N=10",^0 n (%)
same,TEAE: Eczema vesicular,"10 mg, N=10",^0 n (%)
same,TEAE: Fatigue,"10 mg, N=10",^0 n (%)
same,TEAE: Gastrointestinal disorders,"10 mg, N=10",^0 n (%)
same,TEAE: General disorders and administration site conditions,"10 mg, N=10",^0 n (%)
same,TEAE: Headache,"10 mg, N=10",^0 n (%)
same,TEAE: Hypertension,"10 mg, N=10",^0 n (%)
same,TEAE: Infections and infestations,"10 mg, N=10",^0 n (%)
same,"TEAE: Injury, poisoning and procedural complications","10 mg, N=10",^2 (20.0) n (%)
same,TEAE: Insomnia,"10 mg, N=10",^0 n (%)
same,TEAE: Irritability,"10 mg, N=10",^0 n (%)
same,TEAE: Musculoskeletal and connective tissue disorders,"10 mg, N=10",^0 n (%)
same,TEAE: Nasopharyngitis,"10 mg, N=10",^0 n (%)
same,TEAE: Nausea,"10 mg, N=10",^0 n (%)
same,TEAE: Neck pain,"10 mg, N=10",^0 n (%)
same,"TEAE: Neoplasms benign, malignant and unspecified","10 mg, N=10",^0 n (%)
same,TEAE: Nervous system disorders,"10 mg, N=10",^0 n (%)
same,TEAE: Post lumbar puncture syndrome,"10 mg, N=10",^2 (20.^0) n (%)
same,TEAE: Psoriasis,"10 mg, N=10",^0 n (%)
same,TEAE: Psychiatric disorders,"10 mg, N=10",^0 n (%)
same,TEAE: Renal and urinary disorders,"10 mg, N=10",^0 n (%)
same,TEAE: Renal colic,"10 mg, N=10",^0 n (%)
same,TEAE: Reproductive system and breast disorders,"10 mg, N=10",^0 n (%)
same,TEAE: Skin and subcutaneous tissue disorders,"10 mg, N=10",^0 n (%)
same,TEAE: Somnolence,"10 mg, N=10",^0 n (%)
same,TEAE: Syncope,"10 mg, N=10",^0 n (%)
same,TEAE: Urticaria,"10 mg, N=10",^0 n (%)
same,TEAE: Vascular disorders,"10 mg, N=10",^0 n (%)
same,TEAE: Vulvovaginal candidiasis,"10 mg, N=10",^0 n (%)
same,TEAE: Vulvovaginal pruritus,"10 mg, N=10",^0 n (%)
same,Subjects with any TEAE,"50 mg, N=10",^6 (60.0) n (%)
same,TEAE: Accidental overdose,"50 mg, N=10",^1 (10.^0) n (%)
same,TEAE: Anxiety,"50 mg, N=10",^1 (10.^0) n (%)
same,TEAE: Bladder cancer,"50 mg, N=10",^0 n (%)
same,TEAE: Conjunctivitis,"50 mg, N=10",^0 n (%)
same,TEAE: Dementia Alzheimer’s type,"50 mg, N=10",^1 (10.^0) n (%)
same,TEAE: Depressed mood,"50 mg, N=10",^1 (10.^0) n (%)
same,TEAE: Dermatitis allergic,"50 mg, N=10",^1 (10.^0) n (%)
same,TEAE: Dizziness,"50 mg, N=10",^0 n (%)
same,TEAE: Eczema vesicular,"50 mg, N=10",^1 (10.^0) n (%)
same,TEAE: Fatigue,"50 mg, N=10",^0 n (%)
same,TEAE: Gastrointestinal disorders,"50 mg, N=10",^1 (10.0) n (%)
same,TEAE: General disorders and administration site conditions,"50 mg, N=10",^0 n (%)
same,TEAE: Headache,"50 mg, N=10",^1 (10.^0) n (%)
same,TEAE: Hypertension,"50 mg, N=10",^0 n (%)
same,TEAE: Infections and infestations,"50 mg, N=10",^1 (10.^0) n (%)
same,"TEAE: Injury, poisoning and procedural complications","50 mg, N=10",^2 (20.^0) n (%)
same,TEAE: Insomnia,"50 mg, N=10",^0 n (%)
same,TEAE: Irritability,"50 mg, N=10",^1 (10.^0) n (%)
same,TEAE: Musculoskeletal and connective tissue disorders,"50 mg, N=10",^1 (10.^0) n (%)
same,TEAE: Nasopharyngitis,"50 mg, N=10",^0 n (%)
same,TEAE: Nausea,"50 mg, N=10",^1 (10·^0) n (%)
same,TEAE: Neck pain,"50 mg, N=10",^1 (10.^0) n (%)
same,"TEAE: Neoplasms benign, malignant and unspecified","50 mg, N=10",^0 n (%)
same,TEAE: Nervous system disorders,"50 mg, N=10",^2 (^20^.0) n (%)
same,TEAE: Post lumbar puncture syndrome,"50 mg, N=10",^1 (10.^0) n (%)
same,TEAE: Psoriasis,"50 mg, N=10",^0 n (%)
same,TEAE: Psychiatric disorders,"50 mg, N=10",^2 (^20^.0) n (%)
same,TEAE: Renal and urinary disorders,"50 mg, N=10",^1 (10.^0) n (%)
same,TEAE: Renal colic,"50 mg, N=10",^1 (10.^0) n (%)
same,TEAE: Reproductive system and breast disorders,"50 mg, N=10",^1 (10.^0) n (%)
same,TEAE: Skin and subcutaneous tissue disorders,"50 mg, N=10",^2 (^20^.0) n (%)
same,TEAE: Somnolence,"50 mg, N=10",^0 n (%)
same,TEAE: Syncope,"50 mg, N=10",^0 n (%)
same,TEAE: Urticaria,"50 mg, N=10",^0 n (%)
same,TEAE: Vascular disorders,"50 mg, N=10",^0 n (%)
same,TEAE: Vulvovaginal candidiasis,"50 mg, N=10",^1 (10.^0) n (%)
same,TEAE: Vulvovaginal pruritus,"50 mg, N=10",^1 (10.^0) n (%)
same,Subjects with any TEAE,"JNJ-54861911 total, N=20",^8 (40.0) n (%)
same,TEAE: Accidental overdose,"JNJ-54861911 total, N=20",^2 (10.0) n (%)
same,TEAE: Anxiety,"JNJ-54861911 total, N=20",^1 (5.0) n (%)
same,TEAE: Bladder cancer,"JNJ-54861911 total, N=20",^0 n (%)
same,TEAE: Conjunctivitis,"JNJ-54861911 total, N=20",^0 n (%)
same,TEAE: Dementia Alzheimer’s type,"JNJ-54861911 total, N=20",^1 (5.0) n (%)
same,TEAE: Depressed mood,"JNJ-54861911 total, N=20",^1 (5.0) n (%)
same,TEAE: Dermatitis allergic,"JNJ-54861911 total, N=20",^1 (5.0) n (%)
same,TEAE: Dizziness,"JNJ-54861911 total, N=20",^0 n (%)
same,TEAE: Eczema vesicular,"JNJ-54861911 total, N=20",^1 (5.0) n (%)
same,TEAE: Fatigue,"JNJ-54861911 total, N=20",^0 n (%)
same,TEAE: Gastrointestinal disorders,"JNJ-54861911 total, N=20",^1 (5.0) n (%)
same,TEAE: General disorders and administration site conditions,"JNJ-54861911 total, N=20",^0 n (%)
same,TEAE: Headache,"JNJ-54861911 total, N=20",^1 (5.0) n (%)
same,TEAE: Hypertension,"JNJ-54861911 total, N=20",^0 n (%)
same,TEAE: Infections and infestations,"JNJ-54861911 total, N=20",^1 (5.0) n (%)
same,"TEAE: Injury, poisoning and procedural complications","JNJ-54861911 total, N=20",^4 (20.0) n (%)
same,TEAE: Insomnia,"JNJ-54861911 total, N=20",^0 n (%)
same,TEAE: Irritability,"JNJ-54861911 total, N=20",^1 (5.0) n (%)
same,TEAE: Musculoskeletal and connective tissue disorders,"JNJ-54861911 total, N=20",^1 (5.0) n (%)
same,TEAE: Nasopharyngitis,"JNJ-54861911 total, N=20",^0 n (%)
same,TEAE: Nausea,"JNJ-54861911 total, N=20",^1 (5.0) n (%)
same,TEAE: Neck pain,"JNJ-54861911 total, N=20",^1 (5.0) n (%)
same,"TEAE: Neoplasms benign, malignant and unspecified","JNJ-54861911 total, N=20",^0 n (%)
same,TEAE: Nervous system disorders,"JNJ-54861911 total, N=20",^2 (10.0) n (%)
same,TEAE: Post lumbar puncture syndrome,"JNJ-54861911 total, N=20",^3 (15.0) n (%)
